Laboratory results taken from patent US4304778A, “4-Aminoquinazoline derivatives having fungicidal, anti-insect and acaricidal properties” (Sankyo Company Limited, priority 1978, dated 1981).

What was measured:
[1] = test system: guppies; test: Toxicity to guppies; assay type: in vivo; settings: LC50 after 48 hours classified
Protocol: In this example the toxicity of the compounds of the invention towards guppies was estimated and is compared with that of corresponding compounds as disclosed and claimed in our co-pending U.S. Application No. 910,117 filed May 30, 1978. The LC50 was determined after 48 hours and the toxicity to guppies was classified into the rankings (i), (ii) and (iii) according to the following classification scheme: […]

[2] = test system: cockroach larvae; settings: 24 hours; 25° C.
[3] = test system: Phytophthora infestans; assay type: in vivo; settings: tomato late blight; 500 ppm; after 5 days; average per leaf
[4] = test system: Sphaerotheca fuliginea; test: Effect on powdery mildew in cucumbers; assay type: in vivo; settings: cucumber powdery mildew; 500 ppm; 10 days
Protocol: (§1) In the following Examples, wettable powders prepared according to the procedures of Example 4 were used, each powder containing 50% by weight of the active compound of this invention.
Cucumber seedlings (variety Sagamihanshiro), planted two per 12 cm diameter pot, were used as host plants at the stage when the first leaf was fully grown and open. Each test group of three pots was treated with one of the active compounds shown in Table 5 by spraying an aqueous suspension containing 500 ppm of the active compound onto the plants at the rate of 20 ml per 3 pots. After air-drying the plants, the host plants were inoculated with the microorganism Sphaerotheca fuliginea by brushing already infected cucumber leaves with a small brush and letting the microorganism fall onto the host plants. The inoculated plants were kept in a greenhouse at 24°-26° C. for 10 days. At the end of this time, the percentage diseased area was measured.

[5] = test system: final instar larvae of the diamondback moth (Plutella xylostella); test: Repellent and emergence-inhibition effect on the final instar larvae of diamondback moths; assay type: in vivo; settings: 72 hours; for pest or weed control at 500 ppm: Plutella xylostella, read-out: Emergence-inhibition rate (%); for Extent of ingestion: radish leaves dipped in 500 ppm
Excerpt: as §1
Leaves of the Japanese radish (Raphanus sativus) were dipped for 30 seconds into a liquid containing 500 ppm of one of the compounds shown in Table 9. After air-drying the leaves, each leaf was placed into a plastic icecream cup (diameter 8 cm) and 15 final instar larvae of the diamondback moth (Plutella xylostella) were placed into each cup. Each test was conducted in duplicate and the results were averaged.

Structure (SMILES)	Toxicity ranking [1]	Diseased area (%) [3] [%]	Diseased area (%) [4] [%]	other results
Cc1ccccc1OCCNc1ncnc2ccccc12 [Compound A, 4-{N-[2-(2-methylphenoxy)ethyl]amino}quinazoline, reference compound]	iii (all fish dead at 0.5 ppm)			
CC(C)c1ccccc1OCCNc1ncnc2ccccc12 [Compound B, 4-{N-[2-(2-isopropylphenoxy)ethyl]amino}quinazoline, reference compound]	iii (all fish dead at 0.5 ppm)			
Cc1ccc(OCCNc2ncnc3ccccc23)c(C)c1 [Compound C, 4-{N-[2-(2,4-dimethylphenoxy)ethyl]amino}quinazoline, reference compound]	iii (all fish dead at 0.5 ppm)			
Cc1cc(Cl)ccc1OCCNc1ncnc2ccccc12 [Compound D, 4-{N-[2-(4-chloro-2-methylphenoxy)ethyl]amino}quinazoline, reference compound]	iii (all fish dead at 0.5 ppm)			
CN(CCOc1ccccc1)c1ncnc2ccccc12 [Compound No. 4, 4-[N-methyl-N-(2-phenoxyethyl)amino]quinazoline]				Mortality rate (%), 0.5mg test cpd/10 cockroaches/bottle [2]: 85%; Mortality rate (%), 1mg test cpd/10 cockroaches/bottle [2]: 100%
C=CCN(CCOc1ccccc1C)c1ncnc2ccccc12 [Compound No. 8, 4-{N-allyl-N-[2-(2-methylphenoxy)ethyl]amino}quinazoline]	ii (all fish dead at 10 ppm but alive at 0.5 ppm)	5	0	
Cc1ccccc1OCCN(Cc1ccccc1)c1ncnc2ccccc12 [compound 3, 4-{N-benzyl-N-[2-(2-methylphenoxy)ethyl]amino}quinazoline]	i (all fish alive at 10 ppm)	11	0	
CCN(CCOc1ccccc1)c1ncnc2ccccc12 [compound 5, 4-[N-ethyl-N-(2-phenoxyethyl)amino]quinazoline]			6	
CCCN(CCOc1ccccc1C)c1ncnc2ccccc12 [compound 6, 4-{N-[2-(2-methylphenoxy)ethyl]-N-propylamino}quinazoline]		0	0	
Cc1ccccc1OCCN(c1ncnc2ccccc12)C(C)C [compound 7, 4-{N-isopropyl-N-[2-(2-methylphenoxy)ethyl]amino}quinazoline]	ii (all fish dead at 10 ppm but alive at 0.5 ppm)		0	
CN(CCOc1ccccc1Cl)c1ncnc2ccccc12 [compound 11, 4-{N-[2-(2-chlorophenoxy)ethyl]-N-methylamino}quinazolone]		3		
CCC(C)c1ccccc1OCCN(C)c1ncnc2ccccc12 (centres unmarked) [compound 12, 4-{N-methyl-N-[2-(2-sec-butylphenoxy)ethyl]amino}quinazoline]		15		Mortality rate (%), 0.5mg test cpd/10 cockroaches/bottle [2]: 90%; Mortality rate (%), 1mg test cpd/10 cockroaches/bottle [2]: 100%
COc1ccccc1OCCN(C)c1ncnc2ccccc12 [compound 16, 4-{N-[2-(2-methoxyphenoxy)ethyl]-N-methylamino}quinazoline]		13		
Cc1cccc(OCCN(C)c2ncnc3ccccc23)c1 [compound 20, 4-{N-methyl-N-[2-(3-methylphenoxy)ethyl]amino}quinazoline]				Mortality rate (%), 0.5mg test cpd/10 cockroaches/bottle [2]: 90%; Mortality rate (%), 1mg test cpd/10 cockroaches/bottle [2]: 100%
CN(CCOc1cccc(Cl)c1)c1ncnc2ccccc12 [compound 23, 4-{N-[2-(3-chlorophenoxy)ethyl]-N-methylamino}quinazoline]				Mortality rate (%), 0.5mg test cpd/10 cockroaches/bottle [2]: 85%; Mortality rate (%), 1mg test cpd/10 cockroaches/bottle [2]: 100%
CCCN(CCOc1ccccc1C(C)C)c1ncnc2ccccc12 [compound 24, 4-{N-[2-(2-isopropylphenoxy)ethyl]-N-propylamino}quinazoline]			0	
CCN(CCOc1ccccc1C(C)C)c1ncnc2ccccc12 [compound 27, 4-{N-ethyl-N-[2-(2-isopropylphenoxy)ethyl]amino}quinazoline]			0	
CCCCN(CCOc1ccccc1C(C)C)c1ncnc2ccccc12 [compound 28, 4{N-butyl-N-[2-(2-isopropylphenoxy)ethyl]amino}quinazoline]			0	
CC(C)c1ccccc1OCCN(c1ncnc2ccccc12)C(C)C [compound 29, 4-{N-isopropyl-N-[2-(2-isopropylphenoxy)ethyl]amino}quinazoline]				pest or weed control at 500 ppm [5]: 60%; Extent of ingestion [5]: ± to +
CCCN(CCOc1ccc(C)cc1C)c1ncnc2ccccc12 [compound 33, 4-{N-[2-(2,4-dimethylphenoxy)ethyl]-N-propylamino}quinazoline]			0	Mortality rate (%), 0.5mg test cpd/10 cockroaches/bottle [2]: 90%; Mortality rate (%), 1mg test cpd/10 cockroaches/bottle [2]: 100%
CCCCN(CCOc1ccc(C)cc1C)c1ncnc2ccccc12 [compound 35, 4-{N-butyl-N-[2-(2,4-dimethylphenoxy)ethyl]amino}quinazoline]	ii (all fish dead at 10 ppm but alive at 0.5 ppm)		0	
Cc1ccc(OCCN(Cc2ccccc2)c2ncnc3ccccc23)c(C)c1 [compound 36, 4-{N-benzyl-N-[2-(2,4-dimethylphenoxy)ethyl]amino}quinazoline]	ii (all fish dead at 10 ppm but alive at 0.5 ppm)		0	
Cc1ccc(OCCN(c2ncnc3ccccc23)C2CCCCC2)c(C)c1 [compound 37, 4-{N-cyclohexyl-N-[2-(2,4-dimethylphenoxy)ethyl]amino}quinazoline]				pest or weed control at 500 ppm [5]: 60%; Extent of ingestion [5]: ± to +
Cc1cc(Cl)ccc1OCCN(c1ncnc2ccccc12)C(C)C [compound 40, 4-{N-[2-(4-chloro-2-methylphenoxy)ethyl]-N-isopropylamino}quinazoline]	i (all fish alive at 10 ppm)		0	
Cc1cc(Cl)ccc1OCCN(Cc1ccccc1)c1ncnc2ccccc12 [compound 42, 4-{N-benzyl-N-[2-(4-chloro-2-methylphenoxy)ethyl]amino}quinazoline]				pest or weed control at 500 ppm [5]: 60%; Extent of ingestion [5]: ± to +
CC(C)c1ccccc1OCCN(c1ncnc2ccccc12)C1CCCCC1 [compound 46, 4-{N-cyclohexyl-N-[2-(2-isopropylphenoxy)ethyl]amino}quinazoline]		0		
CCCN(CCOc1cc(C(C)C)ccc1C)c1ncnc2ccccc12 [compound 48, 4-{N-[2-(5-isopropyl-2-methylphenoxy)ethyl]-N-propylamino}quinazoline]			0	
CCCCN(CCOc1cc(C(C)C)ccc1C)c1ncnc2ccccc12 [compound 49, 4-{N-butyl-N-[2-(5-isopropyl-2-methylphenoxy)ethyl]amino}quinazoline]			0	
CC(C)=CCN(CCOc1ccccc1C(C)C)c1ncnc2ccccc12 [compound 53, 4-{N-[2-(2-isopropylphenoxy)ethyl]-N-(3-methyl-2-butenyl)amino}quinazoline]	ii (all fish dead at 10 ppm but alive at 0.5 ppm)	0		
CC(C)c1ccccc1OCCN(C)c1ncnc2ccccc12.O=C(O)C(=O)O [compound 54, 4-{N-[2-(2-isopropylphenoxy)ethyl]-N-methylamino}quinazoline oxalate]		0		
